In patent US5366726A (priority 1992, dated 1994):
Where “and” joins values, the source holds several entries; their conditions need not be identical. Identical values can stand only once. Entries after “also recorded” stand apart in the source; their conditions may differ. Like-named read-outs stand apart in the source and are kept apart here.

How the values were obtained:
[1] = parenteral pentamidine, TMP-SMX; cited from earlier work
Pneumocystis carinii [2] = assay: Example 7: prevention of PCP, 300 mg twice per month vs 600 mg once per month; assay type: in vivo, human
From the text: (§1) Five patients who developed PCP within 28 days were not evaluated. One hundred (66%) of the patients were concurrently receiving AZT, and 42 (28%) had experienced one prior episode of PCP.

[3] = Example 2: pentamidine in BAL supernatant, BAL sediment and serum (HPLC); assay type: in vivo, human
From the text: The patients were divided into two groups.

[4] = Example 1: toxicity of inhaled vs intravenous pentamidine in patients; details: for major toxicity: neutropenia
[5] = Example 1: pentamidine concentrations in plasma and bronchoalveolar lavage fluid (HPLC); assay type: in vivo, human; details: for Plasma conc. on Day 1: peak during or end of inhalation, single patients
Experimental: For six inhalation patients (1, 4, 6, 7, 15, and 16) and five i.v. patients (2, 3, 5, 8, and 22), plasma samples were obtained at the completion of therapy and at 0.17, 0.5, 1, 1.5, 2, 2.5, 3, 4, 5, 6, 8, 10, 12, and 18 hours following initiation of therapy. For patients 9-14 and 17-21, trough and peak plasma samples were collected for the first three days, then weekly during therapy. Trough and peak samples were obtained on days 2, 3, 4, 5, 7, 11, and 13 for patient 2, days 2, 3, 4, 5, 7, and 12 for patient 3, days 2, 3, 4, 5, 13 and 18 for patient 5, and days 2, 3, 4, 5, and 11 for patient 8.

[6] = cited from earlier work
[7] = Example 3: serum pentamidine concentrations; assay type: in vivo; details: human, inhaled or intranasal, 300 mg, serum pentamidine concentration at end of therapy, 2 patients
Pneumocystis carinii [8] = details: cited from earlier work; for Vital Capacity: percent predicted
Pneumocystis carinii [9] = assay: Example 1: treatment of P. carinii pneumonia, inhaled vs intravenous pentamidine; assay type: in vivo, human
[10] = human, in vivo
Pneumocystis carinii [11] = assay: Example 5: prevention of P. carinii pneumonia, 300 mg once per month; assay type: in vivo, human; details: single prior episode; vs 10 based on 132 historical controls, p<0.01
From the text: (§2) Within 30 days of initiation of prophylaxis, ten patients were omitted due to treatment (9) or relapse (1). Of the 93 patients, 48 had had at least one previous episode of PCP. Two-thirds of the patients were taking AZT at the onset and throughout the duration of the post-exposure prophylaxis. The median and maximum duration of treatment at the time of analysis was 3.1 and 5.2 months.

[12] = inhaled, animals; cited from earlier work
[13] = design: species or system human; details: in vivo
From the text: as §1

Pneumocystis carinii [14] = assay type: in vivo, human
[15] = Example 8: adverse effects in the clinical trial; assay type: in vivo, human
From the text: Participants were enrolled in one of 13 treatment centers located in the San Francisco Bay area.
Each treatment was supervised by a respiratory therapist who noted any immediate adverse effects and administered a bronchodilator if needed for severe coughing or bronchospasm.
Participants were questioned at baseline and at each visit about concomitant medications, intercurrent illnesses, and symptoms. Information from participants, their physicians, hospital records, microbiology departments, and county health departments were used to determine status.

Pneumocystis carinii [16] = assay: Example 6: prevention of PCP, different dosages and regimens; assay type: in vivo, human; details: of 372, at least one treatment
From the text: A total of 438 participants were selected on the basis of seropositivity for HIV, and were stratified on the basis of (i) prior PCP (n=250), (ii) Kaposi's sarcoma (n=59) or (iii) ARC (n=129).

[17] = design: species or system human; details: in vivo; remark: listed apart in the source
From the text: as §2

[18] = human, in vivo; remark: listed apart in the source
[19] = design: species or system human; details: in vivo; remark: listed apart in the source
From the text: Chest radiographs and arterial blood gas tensions were obtained as clinically indicated.
Liver function SGOT or SGPT
Rash with fever or mucositis
Cough cough or bronchospasm un-

Pneumocystis carinii [20] = details: standard therapy, intravenous pentamidine or TMP-SMX
From the text: Adult patients having or suspected of having AIDS, and who were hospitalized for a fiberoptic bronchoscopy to evaluate diffuse infiltrates on chest radiographs, were studied. The patients were divided into two groups.

Compound: N=C(N)c1ccc(OCCCCCOc2ccc(C(=N)N)cc2)cc1 [pentamidine, p,p'-(pentamethylenedioxy)dibenzamidine]
- rate of severe reactions [1]: 50%
- attack rate at 6.38 months (Pneumocystis carinii [2]; 300 mg twice or 600 mg once per month, p<0.01 vs previous study): 3%
- deaths associated with PCP (Pneumocystis carinii [2]; 3 deaths): 2%
- deaths due to other causes (Pneumocystis carinii [2]; 9 deaths): 6%
- evaluable patients who died (Pneumocystis carinii [2]; 12 of 146): 8%
- BAL sediment concentration, aerosol vs intravenous group ([3]; 18-24 h): 10-100 fold
- mean BAL supernatant (aerosol) vs sediment (intravenous) concentration, factor ([3]; 18-24 h): more than 2
- systemic absorption ([3]; after aerosol administration): Little or no systemic absorption
- minor toxicity (rash), patients ([4]; inhaled): One
- major toxicity ([4]; inhaled, patients also received AZT): 20%
- minor toxicity (elevated serum creatinine, depressed leukocyte count), patients ([4]; intravenous): four
- required a change of therapy due to toxicity ([4]; intravenous): 11%
- major toxicity ([4]; intravenous, hepatotoxicity): 22%
- Cmax ([5]; human, plasma, intravenous, 3 mg/Kg, read-out: mean peak plasma concentration during first infusion): 260 ± 56 ng/mL
- plasma samples with no detectable drug ([5]; inhaled): approximately two-thirds
- lavage fluid concentration, inhalation vs iv-treated patients ([5]; inhaled vs intravenous): approximately 10 fold
- Plasma conc. on Day 1 ([5]; inhaled): 0.0 ng/mL
- Plasma conc. on Day 1 ([5]; inhaled, 1440 min): 3.1 ng/mL and 14.7 ng/mL and 16.9 ng/mL and 7.3 ng/mL and 32.8 ng/mL and 12.3 ng/mL and 2.5 ng/mL and 7.4 ng/mL and 7.8 ng/mL and 35.0 ng/mL and 30.9 ng/mL and 9.2 ng/mL
- maximum plasma concentration during remainder of therapy, single patients ([5]; intravenous, patient 3 day 5 (lowest), patient 19 day 14 (highest)): 164 ng/mL and 1360 ng/mL
- less common adverse effects ([6]; human, in vivo): cardiac arrhythmias and pancreatitis
- local reactions at site of intramuscular injection ([6]; intramuscular): Pain, swelling and sterile abscesses
- generalized or local reactions, intravenous ([6]; intravenous): thrombophlebitis and generalized or localized urticarial eruptions
- hypoglycemia ([6]; parenteral): Hypoglycemia has also been reported
- impaired renal function ([6]; parenteral): about 25%
- other common adverse reactions ([6]; parenteral): elevation of liver enzymes, hematologic disturbances with neutropenia and thrombocytopenia, fever, hypocalcemia, and hallucinations
- hypotension ([6]; single intramuscular dose or rapid intravenous infusion): Severe hypotension
- concentration at 504 h [7]: 22 ng/mL
- PaO2 (Pneumocystis carinii [8]; post therapy, TMP-DPS only 8 patients tested): 87.2 torr
- DLCO (Pneumocystis carinii [8]; post therapy): 62
- Vital Capacity (Pneumocystis carinii [8]; post therapy): 80
- DLCO (Pneumocystis carinii [8]; pre therapy): 59.0
- PaO2 (Pneumocystis carinii [8]; pre therapy): 69.3 torr
- Vital Capacity (Pneumocystis carinii [8]; pre therapy): 70
- successfully treated patients with relapses (Pneumocystis carinii [9]; inhaled): three of ten
- Outcome of therapy (Pneumocystis carinii [9]; inhaled, 4 mg/Kg, UltraVent, single patients): success; also recorded: failed
- patients readmitted and treated for P. carinii pneumonia after discharge (Pneumocystis carinii [9]; inhaled, at one, three and two months): Three
- Time to discharge, all patients in group (Pneumocystis carinii [9]; inhaled, based on 9 successful patients): 15 ± 1 days
- patients with satisfactory outcome (Pneumocystis carinii [9]; inhaled, of the remaining ten evaluated patients): nine
- recurrence of PCP at follow-up (Pneumocystis carinii [9]; inhaled, remaining six, one to nine months following discharge): no recurrence of PCP
- Time to discharge (Pneumocystis carinii [9]; inhaled, single patients): 9 days
- patients with satisfactory outcome (Pneumocystis carinii [9]; intravenous): Eight of nine
- Outcome of therapy (Pneumocystis carinii [9]; intravenous, 3 mg/Kg, single patients): success; also recorded: failed
- Time to discharge, all patients in group (Pneumocystis carinii [9]; intravenous, based on 8 successful patients): 14 ± 2 days
- relapses at follow-up (Pneumocystis carinii [9]; intravenous, four patients, five to six months): no reported relapses
- only frequent adverse effect observed clinically [10]: transient airway irritation
- number of observed cases (Pneumocystis carinii [11]): 3 cases
- microscopic airway changes [12]: no microscopic airway changes
- prophylaxis discontinued due to bronchospasm, patients [13]: one
- dyspnea, respiratory rate and fever (Pneumocystis carinii [14]; all 13 patients treated successfully): marked reduction
- patients who died of progressive respiratory failure (Pneumocystis carinii [14]; concomitant tuberculosis, changed to TMP-SMX day 7): One
- clinical improvement during second week, patients (Pneumocystis carinii [14]; in vivo): 3 patients
- clinical improvement in first week, patients (Pneumocystis carinii [14]; in vivo): Ten
- Successful Treatment w/ Change (Pneumocystis carinii [14]; n = 15): 14(93) n (%)
- Successful Treatment w/o Change (Pneumocystis carinii [14]; n = 15): 13(86) n (%)
- worsened infiltrates at one week with subsequent improvement, patients (Pneumocystis carinii [14]; of 13): Five
- worsened or no improvement for first two weeks, then improvement, patients (Pneumocystis carinii [14]; of 13): 4 patients
- radiographic improvement beginning by second week, patients (Pneumocystis carinii [14]; of 13 patients treated successfully): 4
- average hospital stay (Pneumocystis carinii [14]; patients treated successfully): 8 days
- Pneumothorax, Known etiology ([15]; 30 mg): 5
- Pneumothorax, Spontaneous ([15]; 30 mg): 2
- Significant Cough ([15]; 30 mg): 31%
- Treatments stopped due to cough ([15]; 30 mg): 0%
- Used Bronchodilators ([15]; 30 mg): 7.5%
- Withdrew, Adverse Effects ([15]; 30 mg): 2
- Pneumothorax, Known etiology ([15]; 150 mg): 5
- Pneumothorax, Spontaneous ([15]; 150 mg): 3
- Significant Cough ([15]; 150 mg): 40%
- Treatments stopped due to cough ([15]; 150 mg): 0.2%
- Used Bronchodilators ([15]; 150 mg): 14%
- Withdrew, Adverse Effects ([15]; 150 mg): 11
- Pneumothorax, Known etiology ([15]; 300 mg): 3
- Pneumothorax, Spontaneous ([15]; 300 mg): 3
- Significant Cough ([15]; 300 mg): 38%
- Treatments stopped due to cough ([15]; 300 mg): 0.7%
- Used Bronchodilators ([15]; 300 mg): 20%
- Withdrew, Adverse Effects ([15]; 300 mg): 10
- significant coughing during a treatment ([15]; all participants): 36%
- wheezing during a treatment ([15]; all participants): 11%
- participants who used bronchodilators during treatment ([15]; human, in vivo): Fourteen
- rash, participants ([15]; human, in vivo): One
- spontaneous pneumothorax ([15]; human, in vivo): Eight
- stopped due to interstitial pneumonitis, participants ([15]; human, in vivo): One
- treatments ended by cough ([15]; human, in vivo): 0.3%
- treatments interrupted by cough ([15]; human, in vivo): 0.5%
- withdrew after pneumothoraces, participants ([15]; human, in vivo): four
- participants who experienced relapse (Pneumocystis carinii [16]): 17
- major pentamidine-related toxicity [17]: No major pentamidine-related toxicity
- airway mucosal damage at repeat bronchoscopy [18]: has not revealed evidence of airway mucosal damage
- hypotension or dysglycemia [18]: no episodes of hypotension or dysglycemia
- mild inhalation-associated cough, patients [18]: Eight of thirteen
- mucosal damage at repeat bronchoscopy [18]: evidence of mucosal damage has not been observed
- pentamidine-related reactions in some patients [18]: cough, bronchospasm, or temperature elevation
- reversible bronchospasm, patients [18]: five
- signs or symptoms of bronchitis or bronchospasm between inhalations [18]: not present
- severe adverse reactions [19]: No patient developed any severe adverse reactions
- response of all patients infected with P. carinii (Pneumocystis carinii [20]): responded to standard therapy
